Columns and labels:
[1] = biological target: T1, ORL1 receptor (Homo sapiens, UniProt P41146); assay: ORL1 receptor binding assay with 3H-nociceptin/orphanin FQ (WGA-SPA beads); settings: c=1 μM test substance; 0.5 nM 3H-nociceptin/orphanin FQ; membranes of recombinant CHO-ORL1 cells
T1 construct: expressed in transfected cells; host or cells: CHO (recombinant CHO-ORL1 cells), membranes
Outline: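 Radioligand displacement on membranes from recombinant CHO-ORL1 cells, 0.5 nM 3H-nociceptin/orphanin FQ, 20 μg membrane protein per batch in 50 mM Hepes pH 7.4, 10 mM MgCl2, 1 mM EDTA. Incubated 1 h at room temperature with WGA-SPA beads, scintillation read. Reported as Ki (nM) or % inhibition at 1 μM.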

[2] = biological target: T2, human μ-opiate receptor (Homo sapiens, UniProt P35372); assay: μ-opiate receptor binding assay with [3H] naloxone (WGA-SPA beads); settings: 1 μmol/l test substance, 1 nmol/l [3H] naloxone, CHO-K1 cell membranes expressing human μ-opiate receptor
T2 construct: purchased NEN, Zaventem, Belgium RB-HOM; host or cells: CHO-K1 cells (membrane preparation)
T2 sequence (P35372 whole entry): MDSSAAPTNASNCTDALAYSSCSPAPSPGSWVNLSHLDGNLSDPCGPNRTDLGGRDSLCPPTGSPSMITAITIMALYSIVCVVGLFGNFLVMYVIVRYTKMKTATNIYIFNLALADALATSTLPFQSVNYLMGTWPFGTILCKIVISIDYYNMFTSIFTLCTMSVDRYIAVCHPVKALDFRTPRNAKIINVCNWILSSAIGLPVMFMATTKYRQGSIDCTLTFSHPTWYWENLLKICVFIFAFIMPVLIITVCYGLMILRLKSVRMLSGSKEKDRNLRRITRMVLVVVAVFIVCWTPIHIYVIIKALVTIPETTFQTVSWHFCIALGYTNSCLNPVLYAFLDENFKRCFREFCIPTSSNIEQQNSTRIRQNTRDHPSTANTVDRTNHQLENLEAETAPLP
Outline: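 CHO-K1 membranes expressing human μ-opiate receptor incubated 90 min at room temperature with 1 nmol/l [3H]naloxone and WGA-SPA beads in 50 mmol/l Tris-HCl with 0.05% azide, 0.06% BSA. Non-specific binding with 25 μmol/l naloxone; % inhibition at 1 μmol/l, or IC50 converted to Ki via Cheng-Prusoff.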

T1 sequence (P41146 whole entry): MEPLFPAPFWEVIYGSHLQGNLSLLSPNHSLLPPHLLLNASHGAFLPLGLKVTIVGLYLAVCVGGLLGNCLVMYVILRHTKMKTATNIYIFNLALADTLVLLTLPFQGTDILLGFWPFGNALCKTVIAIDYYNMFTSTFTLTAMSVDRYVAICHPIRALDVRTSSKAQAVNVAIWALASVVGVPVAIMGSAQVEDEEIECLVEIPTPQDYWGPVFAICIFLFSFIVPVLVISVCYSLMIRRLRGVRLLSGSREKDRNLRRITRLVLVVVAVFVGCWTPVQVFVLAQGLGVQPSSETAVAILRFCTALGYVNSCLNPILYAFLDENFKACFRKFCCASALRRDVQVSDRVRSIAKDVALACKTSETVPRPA

CN(C(=O)C1CCCc2c1[nH]c1ccc(Cl)cc21)C(C(=O)N1CCC(c2cccs2)(N(C)C)CC1)c1ccccc1 (centres unmarked) [Example 134, 6-chloro-N-(2-(4-(dimethylamino)-4-(thiophen-2-yl)piperidin-1-yl)-2-oxo-1-phenylethyl)-N-methyl-2,3,4,9-tetrahydro-1H-carbazole-1-carboxamide]
inhibition at 1 µM [1]: 29% | inhibition at 1 µM [2]: 34%

CN(C)C1(c2ccccc2)CCN(C(=O)CCNCc2ccc3cc[nH]c3c2)CC1 [Example 145, 3-((1H-indol-6-yl)methylamino)-1-(4-(dimethylamino)-4-phenylpiperidin-1-yl)propan-1-one]
inhibition at 1 µM [1]: 45% | inhibition at 1 µM [2]: 80%

CN(CCN1CCC(c2ccccc2)(N(C)C)CC1)Cc1c[nH]c2ccccc12 [Example 186, 1-(2-(((1H-indol-3-yl)methyl)(methy)amino)ethyl)-N,N-dimethyl-4-phenylpiperidin-4-amine]
% Inhibition (ORL1) at 1 μM [1]: 88% | % Inhibition (μ) at 1 μM ([2]; 1 µM): 102%

CN(C)C1(c2cccs2)CCN(CCNCc2ccc3[nH]ccc3c2)CC1 [Example 69, 1-(2-((1H-Indol-5-yl)methylamino)ethyl)-N,N-dimethyl-4-(thiophen-2-yl)piperidin-4-amine]
inhibition at 1 µM [1]: 90% | inhibition at 1 µM [2]: 96%

CN(C)C1(c2cccs2)CCN(C(=O)CC(NC(=O)C2CCCc3c2[nH]c2ccc(Cl)cc32)c2ccccc2)CC1 (centres unmarked) [Example 97, 6-chloro-N-(3-(4-(dimethylamino)-4-(thiophen-2-yl)piperidin-1-yl)-3-oxo-1-phenylpropyl)-2,3,4,9-tetrahydro-1H-carbazole-1-carboxamide]
inhibition at 1 µM [1]: 77% | inhibition at 1 µM [2]: 70%

CN(C)C1(c2ccccc2)CCN(C(=O)C2CCCN(Cc3c[nH]c4ccccc34)C2)CC1 (centres unmarked) [Example 151, (1-((1H-indol-3-yl)methyl)piperidin-3-yl)(4-(dimethylamino)-4-phenylpiperidin-1-yl)methanone]
inhibition at 1 µM [1]: 52% | inhibition at 1 µM [2]: 83%

CN(C)C1(c2ccccc2)CCN(C(=O)C2CCCN(C(=O)Cc3c[nH]c4ccc(Br)cc34)C2)CC1 (centres unmarked) [Example 115, 2-(5-bromo-1H-indol-3-yl)-1-(3-(4-(dimethylamino)-4-phenylpiperidine-1-carbonyl)piperidin-1-yl)ethanone]
inhibition at 1 µM [1]: 53% | inhibition at 1 µM [2]: 72%
